From PMC9002265, “A New Series of Strigolactone Analogs Derived From Cinnamic Acids as Germination Inducers for Root Parasitic Plants” (Frontiers in Plant Science, 2022)

Test system: Arabidopsis max4 mutant
Assay: Shoot branching assay, hydroponic culture
Assay type: in vivo
Details: 1 μM in hydroponic culture
Experimental: Sterilized seeds of the Arabidopsis max4-8 mutant were put on the rockwool which was soaked in Noren’s hydroponic solution ([Noren et al., 2004]) and cultured at 22°C for 14 days under LED light (105 μmol/m^2/s) with a 16 h light/8 h dark photoperiod. Seedlings were transferred to a plastic pot containing 800 ml of hydroponic culture and grown under the same conditions for additional 15 or 16 days. Test compounds were dissolved in acetone and added to hydroponic culture. The final concentration of test compounds was 1 or 5 μM and acetone was adjusted to 0.01% (v/v). The hydroponic culture was renewed after 7 days. The number of rosette branches (>5 mm) was counted. In the experience at 5 μM concentration, fresh weight of shoot was also measured to evaluate the side effects of tested compounds.

## CC1=CC(O/C=C2\CCOC2=O)OC1=O (stereo not shown) [GR5]
  shoot branching inhibition of max4: clearly inhibited shoot branching
